Where two headings read alike, the source gives them in different places.
What was measured:
[1] = target: T1, human MERTK cytoplasmic domain (Homo sapiens, UniProt Q12866); experiment: biochemical
T1 construct: human MERTK cytoplasmic domain (Carna Biosciences 08-108); purchased Carna Biosciences 08-108
Experimental: Assay 1a—MERTK HTRF KinEASE-TK Assay
The enzymatic reaction was carried out for 30 min at room temperature. 10 μL TK Antibody-Cryptate/Streptavidin-XL665 (Cisbio 610SAXLG) was then added for 60 min, including EDTA containing detection buffer (Cisbio 62SDBRDF) to stop the reaction.

[2] = target: T2, recombinant human MERTK expressed in live cells (HEK 293, MERTK-Nanoluc fusion vector) (Homo sapiens, UniProt Q12866); experiment: Assay 2 MERTK cellular target engagement (NanoBRET TE) assay; type: cell-based; conditions: HEK 293 cells, tracer K9, 2 h at 37° C.; read-out: Assay 2 Cell TE MER IC50
T2 construct: host or cells: HEK 293
T2 sequence (Q12866 21-999): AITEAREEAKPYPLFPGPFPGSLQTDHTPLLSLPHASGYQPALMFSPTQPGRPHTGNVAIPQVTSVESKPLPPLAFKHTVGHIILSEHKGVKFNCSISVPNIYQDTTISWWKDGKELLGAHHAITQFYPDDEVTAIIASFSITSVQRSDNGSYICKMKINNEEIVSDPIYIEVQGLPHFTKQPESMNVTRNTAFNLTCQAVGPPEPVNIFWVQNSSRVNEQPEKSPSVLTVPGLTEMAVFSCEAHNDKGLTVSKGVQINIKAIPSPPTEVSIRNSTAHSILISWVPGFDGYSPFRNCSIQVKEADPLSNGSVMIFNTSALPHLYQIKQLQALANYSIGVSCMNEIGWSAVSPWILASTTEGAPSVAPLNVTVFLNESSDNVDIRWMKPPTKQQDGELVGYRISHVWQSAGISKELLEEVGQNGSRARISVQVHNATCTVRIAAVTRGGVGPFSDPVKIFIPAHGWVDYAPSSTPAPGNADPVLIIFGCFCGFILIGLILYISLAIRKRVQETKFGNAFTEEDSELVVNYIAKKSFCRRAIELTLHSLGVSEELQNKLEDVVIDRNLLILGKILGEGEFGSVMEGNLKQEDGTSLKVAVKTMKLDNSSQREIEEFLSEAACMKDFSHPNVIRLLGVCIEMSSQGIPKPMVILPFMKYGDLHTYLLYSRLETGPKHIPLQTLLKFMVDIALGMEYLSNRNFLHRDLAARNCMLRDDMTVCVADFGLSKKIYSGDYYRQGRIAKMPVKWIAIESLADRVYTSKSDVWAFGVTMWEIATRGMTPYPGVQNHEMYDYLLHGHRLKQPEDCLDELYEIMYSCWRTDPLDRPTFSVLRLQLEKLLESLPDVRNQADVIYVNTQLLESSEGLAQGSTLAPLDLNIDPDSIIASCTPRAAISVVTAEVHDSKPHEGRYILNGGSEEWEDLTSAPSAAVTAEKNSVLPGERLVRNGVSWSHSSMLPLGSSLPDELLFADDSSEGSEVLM

[3] = target: T3, recombinant human AXL expressed in live cells (HEK, AXL-Nanoluc fusion vector) (Homo sapiens, UniProt P30530); experiment: Assay 3 AXL cellular target engagement (NanoBRET TE) assay; type: cell-based
T3 construct: host or cells: HEK
T3 sequence (P30530 26-894): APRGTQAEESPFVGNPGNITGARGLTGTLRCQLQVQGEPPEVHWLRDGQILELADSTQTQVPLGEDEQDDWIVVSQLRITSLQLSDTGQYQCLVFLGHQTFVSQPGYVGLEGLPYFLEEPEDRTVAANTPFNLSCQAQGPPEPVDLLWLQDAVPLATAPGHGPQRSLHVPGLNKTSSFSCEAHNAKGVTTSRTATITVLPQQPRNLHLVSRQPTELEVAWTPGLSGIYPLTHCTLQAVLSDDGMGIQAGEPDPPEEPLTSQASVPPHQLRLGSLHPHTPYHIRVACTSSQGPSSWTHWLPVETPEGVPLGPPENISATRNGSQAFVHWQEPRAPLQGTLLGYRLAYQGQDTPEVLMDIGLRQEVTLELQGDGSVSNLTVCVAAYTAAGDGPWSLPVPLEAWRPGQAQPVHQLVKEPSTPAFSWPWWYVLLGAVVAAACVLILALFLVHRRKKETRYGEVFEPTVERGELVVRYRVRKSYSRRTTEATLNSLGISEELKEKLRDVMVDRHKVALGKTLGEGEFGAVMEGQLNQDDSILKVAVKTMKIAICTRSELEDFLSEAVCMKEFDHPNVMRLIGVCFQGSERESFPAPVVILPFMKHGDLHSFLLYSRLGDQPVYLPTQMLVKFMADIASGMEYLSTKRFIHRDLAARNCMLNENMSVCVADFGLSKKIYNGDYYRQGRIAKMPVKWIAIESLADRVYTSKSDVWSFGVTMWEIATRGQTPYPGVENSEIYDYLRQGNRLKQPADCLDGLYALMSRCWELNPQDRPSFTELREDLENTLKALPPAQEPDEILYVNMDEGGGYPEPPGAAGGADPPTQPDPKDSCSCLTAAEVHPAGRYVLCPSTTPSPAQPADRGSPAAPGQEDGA
Experimental: Assay 3—AXL Cellular Target Engagement (TE) Assay
Compound affinities for recombinant human AXL expressed in live cells were assessed via the Promega NanoBRET TE assay technology. Human Embryonic Kidney (HEK) cells were transiently transfected with the AXL-Nanoluc fusion vector (Promega Cat NV1071) using Fugene HD reagent (Promega E2311). […] Incubations were conducted for 2 h at 37° C., after which 20 μl NanoGlo substrate/inhibitor mix (Promega N2161) was added to each well for 2-3 min. The plate was then read on a BMG Pherastar FSX using a NanoBRET filter to record donor emission at 450 nm and acceptor fluorophore emission at 610 nm. From this the BRET ratio (acceptor 610 nm/donor 450 nm) for each data point was calculated.

[4] = target: T4, Ba/F3 Pro B-cell line expressing TEL-human Tyro3 fusion domain (Homo sapiens, UniProt Q06418); type: cell-based; conditions: cell survival, 48 h, CellTiter-Glo
T4 sequence (Q06418 518-790 limits assumed): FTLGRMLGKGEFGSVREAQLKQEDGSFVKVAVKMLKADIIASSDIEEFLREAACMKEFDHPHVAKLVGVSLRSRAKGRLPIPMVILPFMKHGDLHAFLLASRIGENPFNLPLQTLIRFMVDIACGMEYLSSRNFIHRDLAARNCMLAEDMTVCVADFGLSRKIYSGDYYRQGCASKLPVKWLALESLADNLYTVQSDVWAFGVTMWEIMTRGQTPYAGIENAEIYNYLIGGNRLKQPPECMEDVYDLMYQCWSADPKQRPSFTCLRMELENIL

[5] = target: T5, Ba/F3 Pro B-cell line expressing TEL-human MERTK fusion domain (Homo sapiens, UniProt Q12866); type: cell-based; conditions: read-out: TEL-MERTK Ba/F3 IC50; cell survival, 48 h, CellTiter-Glo
T5 sequence (Q12866 587-858 limits assumed): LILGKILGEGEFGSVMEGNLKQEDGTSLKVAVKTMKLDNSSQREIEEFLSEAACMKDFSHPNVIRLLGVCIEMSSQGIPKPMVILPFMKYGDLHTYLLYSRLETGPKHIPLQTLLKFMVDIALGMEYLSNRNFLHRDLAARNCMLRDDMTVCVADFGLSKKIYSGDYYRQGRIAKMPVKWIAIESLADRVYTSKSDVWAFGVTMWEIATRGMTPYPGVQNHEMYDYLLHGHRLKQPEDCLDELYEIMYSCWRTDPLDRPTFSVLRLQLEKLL
Method in brief: (§1)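 Ba/F3 cells dependent on BCR-AXL or TEL-MERTK fusion kinase (IL3-free; IL3 only for control lines) treated with compound 48 h at 37 °C, 0.25% DMSO. Viability by CellTiter-Glo luminescence; IC50 for half-maximal inhibition of survival from 4-parameter variable-slope fit.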

[6] = target: T6, human AXL cytoplasmic domain (Homo sapiens, UniProt P30530); experiment: Assay 1b AXL HTRF KinEASE-TK assay; type: biochemical
T6 construct: human AXL cytoplasmic domain (Thermo Fisher A31515); purchased Thermo Fisher A31515
T6 sequence (P30530 473-894 limits assumed): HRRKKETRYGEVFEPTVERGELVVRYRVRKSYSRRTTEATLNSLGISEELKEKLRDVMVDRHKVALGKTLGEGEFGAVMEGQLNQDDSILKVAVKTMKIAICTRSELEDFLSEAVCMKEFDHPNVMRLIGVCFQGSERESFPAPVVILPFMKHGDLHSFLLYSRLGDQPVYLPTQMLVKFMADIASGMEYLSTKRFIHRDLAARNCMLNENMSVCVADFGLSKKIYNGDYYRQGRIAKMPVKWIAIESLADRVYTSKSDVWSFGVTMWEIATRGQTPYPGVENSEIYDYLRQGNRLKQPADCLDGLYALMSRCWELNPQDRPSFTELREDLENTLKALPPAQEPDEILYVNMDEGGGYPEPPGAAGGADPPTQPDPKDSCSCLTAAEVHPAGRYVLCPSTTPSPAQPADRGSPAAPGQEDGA
Method in brief: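 Recombinant cytoplasmic domain (5 nM) in kinase buffer with 5 mM MgCl2, 1 mM MnCl2, 1 mM DTT, 50 nM SEB plus test compounds; reaction 30 min at room temperature. EDTA-containing detection with TK antibody-cryptate/streptavidin-XL665 for 60 min; HTRF 665/620 ratio read. IC50 from 4-parameter logistic fit with variable slope.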

[7] = target: T7, Ba/F3 Pro B-cell line expressing BCR-human AXL kinase domain fusion protein (Homo sapiens, UniProt P30530); experiment: Assay 5 Ba/F3 cell survival assay, BCR-Axl; type: cell-based; conditions: read-out: BCR-Axl Ba/F3 IC50, 48 h, CellTiter-Glo
T7 construct: P11274 (Breakpoint cluster region protein)
T7 sequence (P30530 536-807 limits assumed): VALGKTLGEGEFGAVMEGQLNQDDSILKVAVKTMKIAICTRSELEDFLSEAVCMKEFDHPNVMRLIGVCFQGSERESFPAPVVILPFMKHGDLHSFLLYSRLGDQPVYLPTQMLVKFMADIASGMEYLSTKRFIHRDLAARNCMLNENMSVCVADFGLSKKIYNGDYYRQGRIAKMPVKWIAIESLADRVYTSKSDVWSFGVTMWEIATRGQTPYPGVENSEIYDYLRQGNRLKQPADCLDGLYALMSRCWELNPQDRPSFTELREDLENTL
Method in brief: as §1

[8] = 30 uM ATP, read-out: Assay 1a Mer IC50 30 uM ATP
[9] = 30 uM ATP, * Maximal inhibition achieved 40%, read-out: Assay 1a Mer IC50 30 uM ATP

Compound	IC50 [1, 8] [nM]	IC50 [2] [nM]	IC50 [3] [nM]	IC50 [1, 9] [nM]	other results
CN1CCC(n2cc(-c3cc4c(Nc5ccc(NC(=O)c6cccn(-c7ccccc7)c6=O)cc5)ccnc4cn3)cn2)CC1 [Example 4.1, N-[4-[[6-[1-(1-methyl-4-piperidyl)pyrazol-4-yl]-1,7-naphthyridin-4-yl]amino]phenyl]-2-oxo-1-phenyl-pyridine-3-carboxamide]	37	131	133	–	–
CNC(=O)c1cc2c(Nc3ccc(NC(=O)c4cccn(-c5ccccc5)c4=O)cc3)ccnc2cn1 [Example 5.3, N-methyl-4-[4-[(2-oxo-1-phenyl-pyridine-3-carbonyl)amino]anilino]-1,7-naphthyridine-6-carboxamide]	–	41.9	46.7	11	–
NC(=O)c1cc2c(Nc3ccc(NC(=O)c4cccn(-c5ccccc5)c4=O)cc3)ccnc2cn1 [Example 5.2, 4-[4-[(2-oxo-1-phenyl-pyridine-3-carbonyl)amino]anilino]-1,7-naphthyridine-6-carboxamide]	–	174	363	17	–
O=C(Nc1ccc(Nc2ccnc3cnc(N4CCNCC4)cc23)cc1)c1cccn(-c2ccc(F)cc2)c1=O [Example 1.2, 1-(4-fluorophenyl)-2-oxo-N-[4-[(6-piperazin-1-yl-1,7-naphthyridin-4-yl)amino]phenyl]pyridine-3-carboxamide]	20	28	114	–	–
O=C(Nc1ccc(Nc2ccnc3cnc(N4CCC(O)CC4)cc23)cc1)c1cccn(-c2ccccc2)c1=O [Example 2, N-[4-[[6-(4-hydroxy-1-piperidyl)-1,7-naphthyridin-4-yl]amino]phenyl]-2-oxo-1-phenyl-pyridine-3-carboxamide]	59	46.6	173	–	–
Cc1c(C(=O)Nc2ccc(Nc3ccnc4cnc(N5CCNCC5)cc34)cc2)c(=O)n(-c2ccccc2)n1C [Example 1.4, 1,5-dimethyl-3-oxo-2-phenyl-N-[4-[(6-piperazin-1-yl-1,7-naphthyridin-4-yl)amino]phenyl]pyrazole-4-carboxamide]	33	2190	–	–	–
Cn1cc(-c2cc3c(Nc4ccc(NC(=O)c5cccn(-c6ccccc6)c5=O)cc4)ccnc3cn2)cn1 [Example 4, N-[4-[[6-(1-methylpyrazol-4-yl)-1,7-naphthyridin-4-yl]amino]phenyl]-2-oxo-1-phenyl-pyridine-3-carboxamide]	–	2900	–	3	–
CC(C)C(=O)N1CCC(c2cc3c(Oc4ccc(NC(=O)c5cccn(-c6ccc(F)cc6)c5=O)nc4)ccnc3cn2)CC1 [Example 22, 1-(4-fluorophenyl)-N-[5-[[6-[1-(2-methylpropanoyl)-4-piperidyl]-1,7-naphthyridin-4-yl]oxy]-2-pyridyl]-2-oxo-pyridine-3-carboxamide]	–	–	–	–	IC50 [4]: > 2500 nM; IC50 [1]: 1 nM; IC50 [5]: 10 nM; IC50 [6]: 5 nM; IC50 [7]: 10 nM

Source: US20230203029A1 (priority 2020, published 2023)
